According to patent US20220354844A1, “METHODS OF TREATING METABOLIC DISEASES WITH FUSED BICYCLIC PYRAZOLES” (Belite Bio, Inc, priority 2017, published 2022):
Several values for one entry are separate records, joined by “and”; a condition that tells them apart may be missing. Identical values can stand only once. Like-named read-outs stand apart in the source and are kept apart here.

What was measured:
[1] = tested on: Subjects with NAFLD or NASH; test: Treatment of NAFLD and NASH in humans; assay type: in vivo, human; details: 50 or 100 mg/day for 6 months
Experimental: Subjects with NAFLD or NASH are treated with doses of either 50 or 100 mg/day of compound 1 or 2 for 6 months. Subjects are permitted their usual other medications (e.g. antidiabetic medications such as metformin or […]) but not glitazones, PPAR agonists, OCA, or similar medications. The subjects are assessed before the study, and at intervals during the study, such as every 4 weeks during the study and 4 weeks after the last dose of compound 1 or 2, for safety and pharmacodynamic evaluations.
MRIs of the subjects' livers are taken every 4 weeks during the study and 4 weeks after completion of compound 1 or 2 dosing, to determine hepatic fat; and liver biopsies are taken before the study (to establish the diagnosis) and 4 weeks after completion of compound 1 or 2 dosing. At each visit, after a 12-hour fast, blood is drawn and urine collected; and a standard metabolic panel, complete blood count, and standard urinalysis are performed. Blood is analyzed for total cholesterol, HDL-C, LDL-C, VLDL-C, TGs, apoB, and liver transaminases. The subjects also maintain health diaries, which are reviewed at each visit.

[2] = Compound 2 single dose rat PK study; assay type: in vivo, male Sprague Dawley rats; details: for Vd: read-out: Vss
Experimental: A pharmacokinetic study of Compound 2 following a single intravenous or oral dose administration to male Sprague Dawley rats was conducted, the results of which are found in Table 5 and FIGS. 21-24.

[3] = male, Sprague Dawley, plasma, iv, 2 mg/kg, single iv dose 2 mg/kg, Mean of the 3 rats
[4] = male, Sprague Dawley, plasma, iv, 2 mg/kg, single iv dose 2 mg/kg, individual rats
[5] = male, Sprague Dawley, plasma, po, 5 mg/kg, single po dose 5 mg/kg, Mean of the 3 rats
[6] = male, Sprague Dawley, plasma, po, 5 mg/kg, single po dose 5 mg/kg, individual rats
[7] = single iv dose 2 mg/kg, individual rats, 2 mg/kg
[8] = single po dose 5 mg/kg, individual rats, 5 mg/kg

AUC(0-inf) [2, 3]: 5750 ng·h/mL
AUC(0-t) [2, 3]: 5720 ng·h/mL
MRT inf [2, 3]: 2.3 h
MRT last [2, 3]: 2.2 h
clearance [2, 3]: 3.17 mL/min/kg
half-life [2, 3]: 6.6 h
Tmax ([2]; male, Sprague Dawley, plasma, iv, 2 mg/kg, single iv dose 2 mg/kg, Mean of the 3 rats, first plasma collection time or observed time of highest plasma concentration): 0.22 h
Cmax ([2]; male, Sprague Dawley, plasma, iv, 2 mg/kg, single iv dose 2 mg/kg, Mean of the 3 rats, read-out: Cmax): 2840 ng/mL
Vd [2, 3]: 0.436 L/kg
MRT inf [2, 4]: 2.1 h
MRT last [2, 4]: 2 h
half-life [2, 4]: 7.1 h
Cmax ([2]; male, Sprague Dawley, plasma, iv, 2 mg/kg, single iv dose 2 mg/kg, individual rats, read-out: Cmax): 2920 ng/mL
Vd [2, 4]: 0.421 L/kg
AUC(0-inf) [2, 5]: 6410 ng·h/mL
AUC(0-t) [2, 5]: 6370 ng·h/mL
MRT inf [2, 5]: 4.8 h
MRT last [2, 5]: 4.5 h
Tmax [2, 5]: 0.5 h
half-life [2, 5]: 8 h
Cmax ([2]; male, Sprague Dawley, plasma, po, 5 mg/kg, single po dose 5 mg/kg, Mean of the 3 rats, read-out: Cmax): 1600 ng/mL
AUC(0-inf) [2, 6]: 5340 ng·h/mL
AUC(0-t) [2, 6]: 5280 ng·h/mL
MRT inf [2, 6]: 5 h
MRT last [2, 6]: 4.5 h
Tmax [2, 6]: 0.5 h
half-life [2, 6]: 10.9 h
Cmax ([2]; male, Sprague Dawley, plasma, po, 5 mg/kg, single po dose 5 mg/kg, individual rats, read-out: Cmax): 1530 ng/mL
Cl [2, 7]: 2.05 mL/min/kg
Cmax [2, 7]: 3275 ng/mL and 2320 ng/mL
MRTinf [2, 7]: 2.6 h and 2.3 h
MRTlast [2, 7]: 2.5 h and 2.1 h
Vss [2, 7]: 0.315 L/kg and 0.572 L/kg
t1/2 [2, 7]: 7.0 h and 5.7 h
F ([2]; single po dose 5 mg/kg, Mean of the 3 rats): 44.6%
AUCLAST [2, 8]: 8392 ng·h/mL and 5435 ng·h/mL
AUCinf [2, 8]: 8434 hr · ng/m1 and 5452 hr · ng/m1
Cmax [2, 8]: 2036 ng/mL and 1240 ng/mL
F [2, 8]: 37.2% and 58.7% and 38.0%
MRTinf [2, 8]: 5.4 h and 4.1 h
MRTlast [2, 8]: 5.1 h and 4.0 h
t1/2 [2, 8]: 7.7 h and 5.5 h
SMILES: CC(=O)N1Cc2[nH]nc(C(=O)N3CCC(c4ccc(F)c(F)c4C(F)(F)F)CC3)c2C1 [Compound 2, 1-(3-(4-(3,4-difluoro-2-(trifluoromethyl)phenyl)piperidine-1-carbonyl)-4,6-dihydropyrrolo[3,4-c]pyrazol-5(1H)-yl)ethan-1-one]
improvement in their disease, as manifested by MRI and liver biopsy [1]: dose-related improvement
AUCLAST [2, 7]: 5039 ng·h/mL and 8134 ng·h/mL and 3994 ng·h/mL
